Measurements published in PubChem BioAssay (NCI).
Where “and” joins values, the source holds several entries; their conditions need not be identical. Equal values may be shown once.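 Following 48 hours of exposure in 96-well plates, responses at five concentrations were used to interpolate endpoints linearly. The concentration for 50% growth inhibition is given as GI50. TGI is the concentration that stops growth completely.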

Key:
Assay in all cases: inhibition of tumour cell growth, NCI panel, 48 h
A498 renal = test system: A498 renal
CAKI-1 renal = test system: CAKI-1 renal
HCT-15 colon = test system: HCT-15 colon
HOP-62 NSCLC = test system: HOP-62 NSCLC
IGROV1 ovarian = test system: IGROV1 ovarian
NCI-H460 lung = test system: NCI-H460 lung
OVCAR-3 ovarian = test system: OVCAR-3 ovarian
OVCAR-8 ovarian = test system: OVCAR-8 ovarian
RXF 393 renal = test system: RXF 393 renal
SF-268 CNS = test system: SF-268 CNS

Compound	TGI (A498 renal) [µM]	TGI (CAKI-1 renal) [µM]	TGI (HCT-15 colon) [µM]	TGI (HOP-62 NSCLC) [µM]	TGI (IGROV1 ovarian) [µM]	TGI (NCI-H460 lung) [µM]	TGI (OVCAR-3 ovarian) [µM]	TGI (OVCAR-8 ovarian) [µM]	TGI (RXF 393 renal) [µM]	TGI (SF-268 CNS) [µM]	GI50 (A498 renal) [µM]	GI50 (CAKI-1 renal) [µM]	GI50 (HCT-15 colon) [µM]	GI50 (HOP-62 NSCLC) [µM]	GI50 (IGROV1 ovarian) [µM]	GI50 (NCI-H460 lung) [µM]	GI50 (OVCAR-3 ovarian) [µM]	GI50 (OVCAR-8 ovarian) [µM]	GI50 (RXF 393 renal) [µM]	GI50 (SF-268 CNS)
O=C(NCO)NCOCn1c(=O)n(CO)c(=O)n(CO)c1=O	> 100	> 100	60.9	> 100	> 100	> 94.8	> 100	> 100	30.8	> 80.8	–	–	–	–	–	–	–	–	–	–
C=C1C(=O)OC2/C=C(\COC(C)=O)CCC(OC(C)=O)C3=CC(OC3=O)C12 (stereo unspecified)	34.1	10.1	7.76	38.8	> 56.3	37.8	12.4	9.6	3.28	50	–	–	–	–	–	–	–	–	–	–
C=C1CCC(CC[C@@H]2CC[C@]3(OC2)O[C@@]2(O)CC[C@]3(C)OC2(C)C)C(C)(C)[C@H]1C/C=C1/C(=O)OC[C@@H]1O (stereo partly specified)	15.2	16.5	3.25	19.9	11.6	15.1	7.41	5.04	4.88	8.89	–	–	–	–	–	–	–	–	–	–
Br[C](Br)(Br)[Hg][c]1ccccc1	30	29.8	24	18.7	27.6	37.9	23.3	18.4	21.5	56.2	16.2	15.2	9.39	13.4	13.8	16.8	9.76	12.9	8.55	24.1 µM
O=S(=O)(Nc1cc(Sc2cccc3cccnc23)c(O)c2ccccc12)c1ccccc1	30.6	10.1	2.5	25.4	6	13.7	3.9	> 100	12.3	12.8	4.01	1.97	0.464	1.01	1.01	0.499	0.817	0.631	2.4	1.48 µM
N#CC1CC2(C1)OCCS2 (stereo unspecified)	> 100	> 100	> 100	> 100	> 100	> 100	> 100	> 100	> 100	> 100	–	–	–	–	–	–	–	–	–	–
CCCCON(OC(=O)c1ccc2ccc3cccc4ccc1c2c34)C(C)=O	85.8	32.6	> 100	60.1	55.2	> 100	82.7	> 100	50.2	40.5	27.7	14.4	30.9	24	16.5	32.1	31.8	28.9	19.7	19.5 µM
O=C(O)C1C(Br)(c2ccccc2)C1(Br)c1ccccc1 (stereo unspecified)	83.8	81.9	47.5	> 100	> 100	> 100	> 100	84.6	41.7	69.7	–	–	–	–	–	–	–	–	–	–
ClCC[N+]12CC[N+](CCCl)(CC1)C2	> 100	> 100	> 100	> 100	> 100	> 100	> 100	> 100	> 100	> 100	–	–	–	–	–	–	–	–	–	–
C[C@H](O)C(=O)N1CCC(CCn2c(Sc3cc4c(cc3Br)OCO4)nc3c(N)ncnc32)CC1	> 100	> 100	> 100	> 100	> 100	> 100	> 100	> 100	> 31.6	> 100	3.35	2.26	1.3	1.73	1.32	0.432	3.28	0.827	2.57	8.83 µM
O=c1c2ccccc2c(=O)c2c1[nH]c1c(-c3ccccc3)c(-c3ccccc3)c(=O)c12	7.69	4.99	4.22	9.15	20.4	12	4.48	9.33	5.02	> 100	3.12	1.93	1.31	3.28	3.39	2.82	1.92	2.79	1.54	4.48 µM
O=C1[C@@H]2C(c3ccccc3F)=NO[C@@H]2C(=O)N1c1ccc(Cc2ccc(N3C(=O)[C@H]4C(c5ccccc5F)=NO[C@H]4C3=O)cc2)cc1	> 100	> 100	> 100	> 100	> 100	> 100	> 100	> 100	> 81.3	> 100	–	–	–	–	–	–	–	–	–	–
Cc1ccc(-c2nc3ccc(Cl)cc3c(=O)n2N2C(=O)CSC2c2ccccc2Cl)cc1 (stereo unspecified)	> 100	> 100	> 100	5.09	> 100	> 100	> 100	> 100	> 100	> 100	5.91	4.82	> 100	1.98	3.69	3.68	5.44	4.58	6.46	9.97 µM
CC(C)C[C@H](NC(=O)/C=C/Cn1ccc2ccccc2c1=O)B(O)O	7.95	> 100	48.2	25.9	> 100	97.5	7.88	55.5	5.15	51.5	1.7	4.95	6.55	4.9	10.8	12.7	2.55	14.2	2.13	4.98 µM
Clc1ccc(C=Nc2ccc3c(c2)Cc2ccccc2-3)c(Cl)c1	> 100	> 100	> 100	> 100	> 100	> 100	> 100	> 100	> 100	> 100	–	–	–	–	–	–	–	–	–	–
N#Cc1cccnc1Cl	> 100	> 100	> 100	> 31.6	> 100	> 100	> 100	> 100	> 100	> 100	–	–	–	–	–	–	–	–	–	–
CC1=C[C@H]2c3c(c(O)c(O)c4oc(-c5ccccc5)cc(=O)c34)[C@H](c3cc(O)c(O)c4oc(-c5ccccc5)cc(=O)c34)[C@H]2C(C)(C)C1	3.72	4.57	10.4	12.9	7.51	1.83	12	> 75	1.86	17	0.659	0.621	1.82	0.76	0.486	0.275	1.46	0.68	0.245	0.541 µM
Cc1ccc2[nH]c(O)c(N=Nc3ccc(S(N)(=O)=O)cc3)c2c1	> 25	> 25	> 25	> 25	> 25	> 25	> 18.4	> 25	17.5	> 25	> 25	17.8	11.1	11.5	> 16.1	6.86	6.73	> 16.9	5.27	11.8 µM
CCCSc1nc(COC(=O)NC)c(COC(=O)NC)n1C	> 100	> 100	> 100	> 100	> 100	> 100	> 100	> 100	> 100	> 100	–	–	–	–	–	–	–	–	–	44.4 µM and > 100 µM
O=C1CSC(c2ccc(Cl)cc2Cl)N1c1ccc(F)cc1 (stereo unspecified)	29.8	42.7	31	32.3	33.1	29.9	32.1	35.7	56	32.2	15.9	24.9	17.2	18	16.1	16	17.2	19	27.4	16.9 µM
CC1=C(C(=O)Nc2ccc(F)c(Cl)c2)C(c2cccc(O)c2)NC(=O)N1 (stereo unspecified)	> 100	> 100	> 100	> 100	> 100	> 100	> 100	> 100	> 100	> 100	5.04	> 100	> 100	> 100	36.1	> 100	71.8	62.7	> 100	98 µM
C#Cc1c(I)n(C2OC(CO[Si](C)(C)C(C)(C)C)C3OC(C)(C)OC32)c(=O)[nH]c1=O (stereo unspecified)	35.7	24.8	> 100	38.4	19.1	40.4	3.56	27.8	14.2	27.8	17.1	11.6	4.09	20	4.46	20	1.65	12.1	3.68	12.3 µM
